# Experimental data taken from patent US7767626B2, “3-arylphenyl sulfide derivative and insecticide and miticide” (Kumiai Chemical Industry Co., Ltd., priority 1998, dated 2010).
# Read-outs that look alike come from different tables or passages of the source.
# Key:
# two-spotted spider mites = experiment: Insecticidal test on two-spotted spider mites (Test Example 1); format: in vivo; conditions: Tetranychus urticae, 312 h, read-out: preventive value
# From the text: Test Example 1 Insecticidal Test on Two-Spotted Spider Mites
# [1] = wettable powder diluted to 500 ppm active ingredient, soybean seedlings inoculated with adult mites immersed, survivors counted after 13 days, Equation 1
SMILES,melting point [°C],pest or weed control at 500 µg/mL (two-spotted spider mites; [1]) [%],pest or weed control at 500 µg/mL (two-spotted spider mites; in Glycine max) [%]
CCSc1cc(-c2ccc(Cl)cc2Cl)ccc1C#N,89 to 92,–,–
"CSc1cc(-c2ccccc2)c(C#N)c(N)c1C#N [Comparative Compound 1, 2-amino-6-methylthio-4-phenyl-benzene-1,3-dicarbonitrile, reference compound]",–,0,–
"CSc1cc(-c2ccccc2)c(C#N)c(N)c1[N+](=O)[O-] [Comparative Compound 2, 2-amino-6-phenyl-4-methylthio-3-nitrobenzonitrile, reference compound]",–,0,–
"C=CCSc1cc(-c2ccc(C(F)(F)F)cc2)ccc1C#N [Compound I-42, 2-(2-propenylthio)-4-(4-trifluoromethylphenyl)benzonitrile]",89 to 90,–,≥ 90
"CCOCOc1ccc(-c2ccc(C(F)(F)F)cc2)cc1SCC(F)(F)F [Compound I-213, [2-ethoxymethoxy-5-(4-trifluoromethylphenyl)phenyl] 2,2,2-trifluoroethyl sulfide]",–,–,≥ 90
"CCCSc1cc(-c2ccc(C(F)(F)F)cc2)c(F)cc1[N+](=O)[O-] [Compound I-221, [4-fluoro-2-nitro-5-(4-trifluoromethylphenyl)phenyl] propyl sulfide]",57 to 59,–,≥ 90
"N#Cc1ccc(-c2n[nH]cc2C(F)(F)F)cc1SCC(F)(F)F [Compound V-639, 2-(2,2,2-trifluoroethylthio)-4-(4-trifluoromethylpyrazolyl)benzonitrile]",90 to 91,≥ 90,–
"N#Cc1ccc(-c2ccc(C(F)(F)F)cn2)cc1SCC1CC1 [I I-5, 2-cyclopropylmethylthio-4-(5-trifluoromethylpyridin-2-yl)benzonitrile]",135 to 136,≥ 90,–
"N#Cc1ccc(-c2ccc(Cl)s2)cc1SCC1CC1 [I V-5, 4-(5-chlorothiophen-2-yl)-2-cyclopropylmethylthiobenzonitrile]",123 to 124,≥ 90,–
